Source: patent US20260069541A1, “COMPOSITIONS AND METHODS FOR THE DELIVERY OF ACTIVE AGENTS INCLUDING NUCLEIC ACIDS” (Ohio State Innovation Foundation, priority 2022, published 2026)

How the values were obtained:
A549 cells [1] = assay: Colony formation assay; format: cell-based; conditions: up to 1 week
Protocol: Colony Formation Assay. A549 cells were seeded at 100 cells/well in 24-well plates 24 hours prior to treatments. Cells were treated with 16-mer and 20-mer AM21 in free solution and QTPlus at concentrations of 1 uM and 10 uM. Cells were allowed to form colony for up to 1-week followed with fixation by methanol and colony detection by crystal violet.

miR-21 = assay: In vitro gene regulation, RT-qPCR of miR-21 downstream genes; format: cell-based; conditions: KB and A549 cells; free solution, QTsome Original or QTPlus
Protocol: In Vitro Gene Regulation. KB, A549, THP-1, MC38, and RAW264.7 cells were seeded at 3×10^5 cells/well in 6-well plates 24 hours prior to treatments. Cells were treated with scramble oligonucleotide or AM21 in free solution, lipofectamine, QTsome Original, and QTPlus. Total RNA was extracted using TRI reagent (Zymo Research) per manufacturer protocol. cDNA was prepared by high-capacity cDNA reverse transcription kit (Invitrogen, Waltham, MA, USA), and real-time qPCR (RT-qPCR) was done using SsoAdvanced™ Universal SYBR® Green Supermix (Bio-Rad Laboratories, Hercules, CA) on a QuantStudio 7 Flex Real-time PCR System. All the RT-qPCR primers were purchased from Sigma-Aldrich. Beta-actin (Actb) was selected as the housekeeping gene control. The relative amount of RNA level was calculated and compared according to the 2-ΔΔCt method.

[2] = test system: FLuc mRNA expression in HEK293, A549, and KB; assay: In vitro bioluminescent assay, FLuc mRNA delivery (Example 1); format: cell-based; conditions: comparison of ionizable lipids (FIG. 1D) and helper lipids (FIG. 1E)
Protocol: In Vitro Bioluminescent Assay. HEK293, A549, and KB were seeded at 3000 cells/well in 96-well plates 24 hours prior to treatments. Cells were treated with 0.1 ug of FLuc mRNA in QTsome Original or QTPlus. Cells were allowed to uptake QTsome Original or QTPlus encapsulating mRNA overnight. The mRNA expression was determined by Bright-Glo™ Luciferase Assay System (Promega, Madison, WI).

FFLuc mRNA expression = assay: In vivo mRNA expression after IM injection (IVIS bioluminescence); parameters: species or system ICR CD-1 Swiss mice; conditions: 1.5 μg per leg, two rounds combined, helper lipid in QTsome+
Text: ICR CD-1 Swiss mice were purchased from Charles River Laboratory Animals were housed in a temperature-controlled room under a 12 hr light/12 hr dark cycle and fed normal chow diet. All animal studies were reviewed and approved by the Ohio State University Institutional Laboratory Animal Care and Use Committee. Both male and female mice were used for experiments. In vivo mRNA expression was quantified by measuring firefly luciferase bioluminescence. Mice treated with IM injection of FFLuc mRNA lipid QTsome+ nanoparticles at 1.5 μg per leg were injected with luciferin intraperitonially 5 minutes prior to bioluminescence measurements. Bioluminescence images were taken by a in vivo imaging system (IVIS) under optimal exposure settings.

HEK293T cells = assay: Bright-Glo luciferase assay, FFLuc mRNA delivery by QTsome+ (Example 2); format: cell-based; conditions: 10,000 HEK293T cells, 100 ng FFLuc mRNA, overnight
Protocol: To examine the delivery efficiency of QTsome+ lipid nanoparticles, FFLuc mRNA was selected as the reporter gene of interest to be encapsulated into different QTsome+ formulations. Bioluminescence intensity was measured by Bright-Glo luciferase kit used as the quantification of expressed firefly luciferase after mRNA transfection. We treated 10,000 HEK293T cells overnight with 100 ng FFLuc mRNA utilizing different formulations with lipofectamine 3000 as the positive control. […] Therefore, the follow-on samples were formulated at room temperature instead of 65° C. or 37° C.

[3] = TNS fluorescence assay, apparent pKa; format: physicochemical; conditions: helper lipid in QTsome+, same % of DOTAP
Protocol: To evaluate the apparent pKa of the lipid QTsome+ nanoparticles including different combinations of lipids, 2-(p-toluidino) naphthalene-6-sulfonic acid (TNS) fluorescence assay was designed. TNS binds to positively charged lipids through electrostatic interactions and emits strong fluorescence upon excitation. A series of universal buffers (a combination of 10 mM NaCitrate, 10 mM NaPhasphate, 10 mM NaBorate, and 150 mM NaCl) with pH ranging from 3 to 12 was prepared. QTsome+ were diluted in these buffers at the final ionizable lipid (including SM-102, A066, DODMA and DOTAP) concentration of 75 μM. TNS was then added to the final concentration at 6.0 μM. pH was measured after thorough mixing of TNS and QTsome+ using a pH meter. TNS Fluorescence was obtained by transferring 200 μL of samples into a black-opaque plate in triplicate, and reading using a SpectraMax M5 plate reader with the excitation (λex) at 325 nm and the emission (Nem) at 435 nm. It was assumed that in the presence of amino lipids, TNS fluorescence reaches a maximum when 100% of the amino lipids are ionized, while TNS has little fluorescence when the amino lipids are in the un-ionized state. […]
Where FL is TNS fluorescence value, pKa is apparent pKa of the amino lipids, b is the measure of the cooperativeness of the protonation process of […].

[4] = test system: A549 xenograft mouse model; assay: In vivo antitumor efficacy of QTPlus-AM21 and erlotinib, A549 xenograft; parameters: species or system nude mice; conditions: A549 xenograft mice, individually or in combination
Protocol: Treatments were initiated once tumors reached 50-100 mm^3. […] All mice were dosed every 3 days for 5 doses. Tumor growth and body weight were monitored, and the tumor volumes were calculated according to the formula: All animal studies were reviewed and approved by The Ohio State University Institutional Laboratory Animal Care and Use Committee (IACUC). All mice were euthanized one day after the last dose to peak the immune activation and protein expression in TME.

A549 cells [5] = assay: MTS assay, cell viability and synergy with erlotinib (CompuSyn); format: cell-based; conditions: fixed-ratio combination of QTPlus-AM21 and erlotinib
Protocol: MTS Assay. A549 cells were seeded at 3000 cells/well in 96-well plates 25 hours before treatments. […] After 72-hour treatment, cell viability was examined by CellTiter 96® AQueous One Solution (Promega, Madison, WI) per manufacturer protocol.

[6] = test system: MC38 murine colorectal syngeneic model; assay: In vivo antitumor efficacy, MC38 syngeneic model; parameters: species or system C57BL/6 mice; conditions: MC38 syngeneic mice, individually or in combination
Protocol: To evaluate the combination therapy of QTPlus-AM21 and anti-PDL I therapy, MC38 murine colorectal syngeneic model was generated by subcutaneously inoculating C57BL/6 mice (obtained from Charles River Laboratories) with 1×10^6 cells per mouse on the right flack. Treatments were initiated once tumors reached 50-100 mm^3. Mice (n=5) were intraperitoneally treated with saline, 3 mg/kg QTPlus-encapsulating scramble oligonucleotide, 3 mg/kg QTPlus-AM21, 10 mg/kg atezolizumab, and QTPlus-AM21/atezolizumab combination (3 mg/kg QTPlus-AM21 and 10 mg/kg atezolizumab).
All mice were dosed every 3 days for 5 doses. Tumor growth and body weight were monitored, and the tumor volumes were calculated according to the formula: […]
All animal studies were reviewed and approved by The Ohio State University Institutional Laboratory Animal Care and Use Committee (IACUC). All mice were euthanized one day after the last dose to peak the immune activation and protein expression in TME. Terminal Tumor growth inhibition (% TGI) was determined by the formula: […]
Flow Cytometry. […] Stained cells were analyzed using an LSR II flow cytometer in Flow Cytometry Shared Resources (FCSR) at The Ohio State University Comprehensive Cancer Center.

In the case of “5′-A*+T*+C*A*G*+T*+C*+T*G*A*+T*A*A*G*+C*+T-3′ (ATCAGTCTGATAAGCT; chemistry not given here) [AM21]”, the “Inhibition of colony formation / A549 cell growth” value (A549 cells [1]) is reported as “superior in inhibiting A549 cell growth in vitro” and the “miR-21 downstream gene regulation” value (miR-21) is reported as “Akt1 downregulation, Ddah1 upregulation, and Pdl1 upregulation”.

With `CCCCC/C=C\C/C=C\CCCCCCCCOCC(CN1CCCC1)OCCCCCCCC/C=C\C/C=C\CCCCC` (centres unmarked) [A-066, 1-(2,3-bis(((9Z,12Z)-octadeca-9,12-dien-1-yl)oxy)propyl)pyrrolidine] the “mRNA delivery efficiency of QTPlus with different components” value [2] was “the most suitable for mRNA delivery in QTsome platform”.

For `CCCCCCCC/C=C\CCCCCCCC(=O)OC[C@H](COP(=O)(O)OCCN)OC(=O)CCCCCCC/C=C\CCCCCCCC` [DOPE, 1,2-dioleoyl-sn-glycero-3-phosphoethanolamine], the “mRNA delivery efficiency of QTPlus with different components” value [2] was “the most suitable as helper lipids”, the “In vivo delivery efficiency (FLuc expression)” value (FFLuc mRNA expression) was “rather outperformed PC-based helper lipids” and the “Bioluminescence intensity (mRNA delivery efficiency)” value (HEK293T cells) was “outperformed DOPC and DSPC”.

For `CCCCCCCCCCCCCCCCCC(=O)OC[C@H](COP(=O)([O-])OCC[N+](C)(C)C)OC(=O)CCCCCCCCCCCCCCCCC` [DSPC, distearoylphosphatidylcholine], the “Apparent pKa” value [3] was “lowest pKa among all”.

With `CCCCC/C=C\C/C=C\CCCCCCCCC(CCCCCCCC/C=C\C/C=C\CCCCC)OC(=O)CCCN(C)C` [MC3, dilinoleylmethyl-4-dimethylaminobutyrate, reference compound] the “Bioluminescence intensity (mRNA delivery efficiency)” value (HEK293T cells) was “slightly increased the delivery efficiency”.

With `C#Cc1cccc(Nc2ncnc3cc(OCCOC)c(OCCOC)cc23)c1` [erlotinib, Erlotinib] the Body weight [4] was “No significant differences in body weight” and the “Dose reduction index (DRI)” value (A549 cells [5]) was 2.26.

In the case of “atezolizumab: an anti-PDL1 therapy, monoclonal antibody”, the Body weight [6] is reported as “No significant differences in body weight”.
